Measurements taken from patent publication US11603355B2, “Charged ion channel blockers and methods for use” (Nocion Therapeutics, Inc., priority 2019, dated 2023).
Where a name gives a salt, the structure may show the parent alone.

Columns and labels:
[1] = PAMPA membrane permeability assay; format: in vitro ADME; settings: permeability coefficient, pH 7.4 buffer, GIT lipid, 4 hours incubation
Outline: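 Passive diffusion across a GIT-lipid-painted artificial membrane at pH 7.4, with a 50 uM donor stock diluted from DMSO and a 4 h incubation. UV spectra of the donor, acceptor and reference plates were read, and the permeability coefficient was calculated from the AUCs, in 10^−6 cm/s.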

NaV1.7 = molecular target: T1, NaV1.7 (Homo sapiens, UniProt Q15858); assay: Manual patch clamp, internal block of NaV1.7 current; format: cell-based; settings: compound in internal solution, HEK293 cells; for inhibition at 3 µM / inhibition at 10 µM: read-out: Nav1.7 Intracellular Inhibition; for inhibition at 10 µM: % inhibition at 10 μM test concentration
T1 construct: expressed in transfected cells; host or cells: HEK293 (tetracycline-inducible)
T1 sequence (Q15858 whole entry): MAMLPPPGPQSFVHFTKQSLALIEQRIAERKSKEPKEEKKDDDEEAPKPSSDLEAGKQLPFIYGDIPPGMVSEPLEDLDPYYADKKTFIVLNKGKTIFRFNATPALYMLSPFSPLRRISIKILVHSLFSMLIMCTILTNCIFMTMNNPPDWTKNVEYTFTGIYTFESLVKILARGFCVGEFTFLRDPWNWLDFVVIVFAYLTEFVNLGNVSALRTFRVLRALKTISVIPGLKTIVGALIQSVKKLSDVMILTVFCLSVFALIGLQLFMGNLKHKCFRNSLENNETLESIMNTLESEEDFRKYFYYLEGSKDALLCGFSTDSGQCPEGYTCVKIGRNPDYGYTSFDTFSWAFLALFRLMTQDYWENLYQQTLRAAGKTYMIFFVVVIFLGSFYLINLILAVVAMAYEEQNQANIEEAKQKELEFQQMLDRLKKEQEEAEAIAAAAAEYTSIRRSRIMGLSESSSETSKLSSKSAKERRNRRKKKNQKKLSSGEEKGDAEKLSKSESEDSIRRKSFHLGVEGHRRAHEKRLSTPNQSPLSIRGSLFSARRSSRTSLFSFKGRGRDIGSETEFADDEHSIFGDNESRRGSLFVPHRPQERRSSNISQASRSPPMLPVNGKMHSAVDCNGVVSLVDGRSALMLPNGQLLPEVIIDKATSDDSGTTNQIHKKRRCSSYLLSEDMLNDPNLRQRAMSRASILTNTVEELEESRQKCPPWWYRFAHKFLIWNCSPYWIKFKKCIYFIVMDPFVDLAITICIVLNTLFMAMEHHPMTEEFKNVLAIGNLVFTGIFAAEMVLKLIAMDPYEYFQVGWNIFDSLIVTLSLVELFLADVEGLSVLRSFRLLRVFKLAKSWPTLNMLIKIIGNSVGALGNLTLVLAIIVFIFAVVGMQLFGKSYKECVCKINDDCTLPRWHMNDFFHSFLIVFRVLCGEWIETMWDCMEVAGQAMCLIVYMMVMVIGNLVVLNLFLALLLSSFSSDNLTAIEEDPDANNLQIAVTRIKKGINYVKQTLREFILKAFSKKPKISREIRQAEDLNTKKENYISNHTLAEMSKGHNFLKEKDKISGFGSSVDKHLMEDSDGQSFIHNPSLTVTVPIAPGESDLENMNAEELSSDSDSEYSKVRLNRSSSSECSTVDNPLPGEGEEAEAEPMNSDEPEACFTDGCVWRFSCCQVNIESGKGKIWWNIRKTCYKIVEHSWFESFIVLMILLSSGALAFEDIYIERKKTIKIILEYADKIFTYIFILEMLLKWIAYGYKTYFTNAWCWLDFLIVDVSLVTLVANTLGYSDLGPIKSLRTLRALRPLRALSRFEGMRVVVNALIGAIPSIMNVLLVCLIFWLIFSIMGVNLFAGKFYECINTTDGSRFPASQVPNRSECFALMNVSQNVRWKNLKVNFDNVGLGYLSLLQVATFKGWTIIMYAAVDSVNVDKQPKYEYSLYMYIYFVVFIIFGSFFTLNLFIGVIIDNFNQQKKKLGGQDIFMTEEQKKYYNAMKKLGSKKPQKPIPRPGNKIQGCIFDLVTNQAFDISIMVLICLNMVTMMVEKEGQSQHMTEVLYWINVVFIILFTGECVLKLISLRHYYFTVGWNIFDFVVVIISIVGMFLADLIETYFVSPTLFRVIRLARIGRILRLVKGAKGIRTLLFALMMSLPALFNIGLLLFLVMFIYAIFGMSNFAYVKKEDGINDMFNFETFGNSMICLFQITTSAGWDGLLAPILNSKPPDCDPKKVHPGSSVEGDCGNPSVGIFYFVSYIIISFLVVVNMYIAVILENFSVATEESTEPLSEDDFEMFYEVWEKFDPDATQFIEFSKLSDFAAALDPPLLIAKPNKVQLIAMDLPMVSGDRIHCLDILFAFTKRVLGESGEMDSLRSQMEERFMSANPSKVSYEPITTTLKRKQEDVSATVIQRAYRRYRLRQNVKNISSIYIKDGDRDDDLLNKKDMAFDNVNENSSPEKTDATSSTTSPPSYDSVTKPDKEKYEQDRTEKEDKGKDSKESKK
Outline: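 Whole-cell recordings at room temperature in tetracycline-induced HEK293 cells, compound in CsCl internal solution (pH 7.2), held at −100 mV with 10 ms steps to −20 mV. Four 30 s 5 Hz trains after 5 min baseline; fraction of peak inward current remaining computed as Itest/Ibaseline.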

[2] = % inhibition at 3 μM test concentration

Molecule	PAMPA (10^−6 cm/s) [1]	inhibition at 3 µM (NaV1.7; [2])	Nav1.7 Intracellular Inhibition (NaV1.7; [2])	inhibition at 10 µM (NaV1.7)
CCN(CC)C(=O)C1CCC[N+](CC(=O)Nc2c(C)cccc2C)(Cc2ccccc2)C1 (stereo not drawn) [Compound 66A]	+ (“+” (<0.1 10^−6 cm/s))	70 to 90%		
CCOc1cccc(C)c1NC(=O)C[N+]1(Cc2ccccc2)CCCCCC1.[Br-] [Compound 77A]	+ (“+” (<0.1 10^−6 cm/s))	70 to 90%		
Cc1cccc(C)c1C(=O)OCC[N+]1(Cc2ccccc2)CCCCCC1.[Br-] [Compound 82A, 1-benzyl-1-(2-((2,6-dimethylbenzoyl)oxy)ethyl) azepan-1-ium bromide]	+ (“+” (<0.1 10^−6 cm/s))	70 to 90%		
CCOC(=O)C1CCC[N+](CC(=O)Nc2c(C)cccc2C)(Cc2ccccc2)C1.[Br-] (stereo not drawn) [Compound 45A, 1-benzyl-1-(2-((2,6-dimethylphenyl)amino)-2-oxoethyl)-3-(ethoxycarbonyl) piperidin-1-ium bromide]	+ (“+” (<0.1 10^−6 cm/s))	70 to 90%		
Cc1cccc(C)c1N1CCC([N+]2(Cc3ccccc3)CCCCCCC2)C1=O.[Br-] (stereo not drawn) [Compound 90A]	+ (“+” (<0.1 10^−6 cm/s))	> 90%		
1-benzyl-1-(2-((2-(dimethylcarbamoyl)-6-methylphenyl) amino)-2-oxoethyl) azepan-1-ium bromide [Compound 81A]	+ (“+” (<0.1 10^−6 cm/s))		+++ (“+++” 90-70%)	
CC[N+](CC)(CCCc1ccccc1)CC(=O)Nc1c(C)cccc1C.[Br-] [Compound 86A, N-(2-((2,6-dimethylphenyl)amino)-2-oxoethyl)-N, N-diethyl-3-phenylpropan-1-aminium bromide]	+ (“+” (<0.1 10^−6 cm/s))	> 90%		> 95%
COc1cccc(C)c1NC(=O)C[N+]1(Cc2ccccc2)CCCCCC1 [Compound 71A]	+ (“+” (<0.1 10^−6 cm/s))	70 to 90%		
COC(=O)c1ccccc1C[N+]1(CC(=O)Nc2c(C)cccc2C)CCCCC1.[Br-] [Compound 37A, 1-(2-((2,6-dimethylphenyl)amino)-2-oxoethyl)-1-(2-(methoxycarbonyl)benzyl) piperidin-1-ium bromide]	+ (“+” (<0.1 10^−6 cm/s))	70 to 90%		70 to 95%
CCCNC(=O)C1CCC[N+](CC(=O)Nc2c(C)cccc2C)(Cc2ccccc2)C1 (stereo not drawn) [Compound 57A]	+ (“+” (<0.1 10^−6 cm/s))	70 to 90%		
CCCc1cccc(C)c1NC(=O)C[N+]1(Cc2ccccc2)CCCCCC1.[Br-] [Compound 75A]	+ (“+” (<0.1 10^−6 cm/s))	> 90%		
Cc1cccc(-c2ccccc2)c1NC(=O)C[N+]1(Cc2ccccc2)CCCCCC1.[Br-] [Compound 76A]	+ (“+” (<0.1 10^−6 cm/s))	> 90%		
Cc1cccc(C)c1N(C)C(=O)C[N+]1(Cc2ccccc2)CCCCCC1 [Compound 38A, 1-benzyl-1-(2-((2,6-dimethylphenyl) (methyl)amino)-2-oxoethyl) azepan-1-ium formate]	+ (“+” (<0.1 10^−6 cm/s))	70 to 90%		
COC(=O)C1CC[N+](CC(=O)Nc2c(C)cccc2C)(Cc2ccccc2)CC1.[Br-] (stereo not drawn) [Compound 44A, 1-benzyl-1-(2-((2,6-dimethylphenyl)amino)-2-oxoethyl)-4-(methoxycarbonyl) piperidin-1-ium bromide]	+ (“+” (<0.1 10^−6 cm/s))	> 90%		
CCC(=O)OC1CCC[N+](CC(=O)Nc2c(C)cccc2C)(Cc2ccccc2)C1.[Br-] (stereo not drawn) [Compound 52A, 1-benzyl-1-(2-((2,6-dimethylphenyl)amino)-2-oxoethyl)-3-(propionyloxy) piperidin-1-ium bromide]	+ (“+” (<0.1 10^−6 cm/s))	> 90%		
Cc1cccc(C(C)C)c1NC(=O)C[N+]1(Cc2ccccc2)CCCCCC1.[Br-] [Compound 74A]	+ (“+” (<0.1 10^−6 cm/s))	70 to 90%		
CCCOC(=O)C1CCC[N+](CC(=O)Nc2c(C)cccc2C)(Cc2ccccc2)C1.[Br-] (stereo not drawn) [Compound 47A, 1-benzyl-1-(2-((2,6-dimethylphenyl)amino)-2-oxoethyl)-3-(propoxycarbonyl) piperidin-1-ium bromide]	+ (“+” (<0.1 10^−6 cm/s))	> 90%		
Cc1cccc(C)c1NC(=O)C[N+]1(Cc2ccccc2)CCCC(C(=O)N(C)C)C1.[Br-] (stereo not drawn) [Compound 65A]	+ (“+” (<0.1 10^−6 cm/s))	> 90%		

Molecule	PAMPA (10^−6 cm/s) [1]	inhibition at 3 µM (NaV1.7; [2])	Nav1.7 Intracellular Inhibition (NaV1.7; [2])	inhibition at 10 µM (NaV1.7)
Cc1cccc(C)c1N1CCCC([N+]2(Cc3ccccc3)CCCC2)C1=O.[Br-] (stereo not drawn) [Compound 91A, 1-benzyl-1-(1-(2,6-dimethylphenyl)-2-oxopiperidin-3-yl) pyrrolidin-1-ium bromide]	+ (“+” (<0.1 10^−6 cm/s))	40 to 70%		
Cc1cccc(C)c1NC(=O)C[N+]1(Cc2ccccc2)CCCC(C(=O)N2CCCCC2)C1 (stereo not drawn) [Compound 63A]	+ (“+” (<0.1 10^−6 cm/s))	> 90%		
Cc1cccc(C)c1NC(=O)C[N+]1(Cc2ccccc2)CCCC(C(=O)NC(C)C)C1 (stereo not drawn) [Compound 56A]	+ (“+” (<0.1 10^−6 cm/s))	40 to 70%		
COC(=O)c1cccc(C[N+]2(CC(=O)Nc3c(C)cccc3C)CCCCC2)c1.[Br-] [Compound 35A, 1-(2-((2,6-dimethylphenyl)amino)-2-oxoethyl)-1-(3-(methoxycarbonyl)benzyl) piperidin-1-ium bromide]	+ (“+” (<0.1 10^−6 cm/s))	> 90%		
Cc1cccc(C)c1NC(=O)C[N+]1(Cc2ccccc2)CCCC(C(N)=O)C1.[Br-] (mixture of isomers) [Compound 53A, 1-benzyl-3-carbamoyl-1-(2-((2,6-dimethylphenyl)amino)-2-oxoethyl) piperidin-1-ium bromide]	+ (“+” (<0.1 10^−6 cm/s))	70 to 90%		
COC(=O)c1ccc(C[N+]2(CC(=O)Nc3c(C)cccc3C)CCCCC2)cc1.[Br-] [Compound 36A, 1-(2-((2,6-dimethylphenyl)amino)-2-oxoethyl)-1-(4-(methoxycarbonyl)benzyl) piperidin-1-ium bromide]	+ (“+” (<0.1 10^−6 cm/s))	70 to 90%		
Cc1cccc(C)c1NC(=O)C[N+]1(Cc2ccccc2)CCCC(C(=O)N2CCCC2)C1 (stereo not drawn) [Compound 62A]	+ (“+” (<0.1 10^−6 cm/s))	> 90%		
[2H]c1c([2H])c([2H])c(C[N+]2(CC(=O)Nc3c(C)cccc3C)CCCCCC2)c([2H])c1[2H].[Cl-] [Compound 33A, 1-(2-((2,6-dimethylphenyl)amino)-2-oxoethyl)-1-((phenyl-d5)methyl) azepan-1-ium chloride]	+ (“+” (<0.1 10^−6 cm/s))	> 90%		
Cc1cccc(C)c1NC(=O)C[N+]1(Cc2ccccc2)CCCC(F)(F)C1.[Br-] (stereo not drawn) [Compound 32A, 1-benzyl-1-(2-((2,6-dimethylphenyl)amino)-2-oxoethyl)-3,3-difluoropiperidin-1-ium bromide]	+ (“+” (<0.1 10^−6 cm/s))	> 90%		
CCC(=O)Oc1cccc(C)c1NC(=O)C[N+]1(Cc2ccccc2)CCCCCC1.[Br-] [Compound 80A, 1-benzyl-1-(2-((2-methyl-6-(propionyloxy)phenyl)amino)-2-oxoethyl) azepan-1-ium bromide]	+ (“+” (<0.1 10^−6 cm/s))	> 90%		
Cc1cccc(C#N)c1NC(=O)C[N+]1(Cc2ccccc2)CCCCCC1.[Br-] [Compound 72A]	+ (“+” (<0.1 10^−6 cm/s))	> 90%		
Cc1cccc(C)c1N1CCC([N+]2(Cc3ccccc3)CCCCC2)C1=O.[Br-] (stereo not drawn) [Compound 89A, 1-benzyl-1-(1-(2,6-dimethylphenyl)-2-oxopyrrolidin-3-yl)piperidin-1-ium bromide]	++ (“++” (0.1-2.0 10^−6 cm/s))	70 to 90%		
Cc1cccc(C)c1NC(=O)C[N+]1(Cc2ccccc2)CCCC(C(=O)OC(C)C)C1 (mixture of isomers) [Compound 46A, 1-benzyl-1-(2-((2,6-dimethylphenyl)amino)-2-oxoethyl)-3-(isopropoxycarbonyl) piperidin-1-ium trifluoroacetate salt]	+ (“+” (<0.1 10^−6 cm/s))	> 90%		
CNC(=O)C1CCC[N+](CC(=O)Nc2c(C)cccc2C)(Cc2ccccc2)C1 (stereo not drawn) [Compound 55A]	+++ (“+++” (2.0-10.010^−6 cm/s))	70 to 90%		
Cc1cccc(F)c1NC(=O)C[N+]1(Cc2ccccc2)CCCCCC1.[Br-] [Compound 69A, 1-benzyl-1-(2-((2-fluoro-6-methylphenyl)amino)-2-oxoethyl)azepan-1-ium bromide]	++ (“++” (0.1-2.0 10^−6 cm/s))	> 90%		
CCNC(=O)C1CCC[N+](CC(=O)Nc2c(C)cccc2C)(Cc2ccccc2)C1.[Br-] (stereo not drawn) [Compound 54A, 1-benzyl-1-(2-((2,6-dimethylphenyl)amino)-2-oxoethyl)-3-(ethylcarbamoyl) piperidin-1-ium bromide]	+ (“+” (<0.1 10^−6 cm/s))	> 90%		
CCCOC(=O)N1CCC[N+](CC(=O)Nc2c(C)cccc2C)(Cc2ccccc2)CC1.[Br-] (stereo not drawn) [Compound 68A, 1-benzyl-1-(2-((2,6-dimethylphenyl)amino)-2-oxoethyl)-4-(propoxycarbonyl)-1,4-diazepan-1-ium bromide]	+ (“+” (<0.1 10^−6 cm/s))	> 90%		
